Key:
Experiment in all cases: KINOMEscan competition binding
Conditions in all cases: compound 10.0 µM
[1] = molecular target: ACVR2B (human) (UniProt Q13705)
[2] = molecular target: BLK (human) (UniProt P51451)
[3] = molecular target: BMX (human) (UniProt P51813)
[4] = molecular target: BTK (human) (UniProt Q06187)
[5] = molecular target: CAMKK1 (human) (UniProt Q8N5S9)
[6] = molecular target: CDK17 (human) (UniProt Q00537)
[7] = molecular target: CLK4 (human) (UniProt Q9HAZ1)
[8] = molecular target: CSNK1G2 (human) (UniProt P78368)
[9] = molecular target: DAPK3 (human) (UniProt O43293)
[10] = molecular target: DDR2 (human) (UniProt Q16832)
[11] = molecular target: FES (human) (UniProt P07332)
Sequence of FES (human) (P07332 whole entry, looked up): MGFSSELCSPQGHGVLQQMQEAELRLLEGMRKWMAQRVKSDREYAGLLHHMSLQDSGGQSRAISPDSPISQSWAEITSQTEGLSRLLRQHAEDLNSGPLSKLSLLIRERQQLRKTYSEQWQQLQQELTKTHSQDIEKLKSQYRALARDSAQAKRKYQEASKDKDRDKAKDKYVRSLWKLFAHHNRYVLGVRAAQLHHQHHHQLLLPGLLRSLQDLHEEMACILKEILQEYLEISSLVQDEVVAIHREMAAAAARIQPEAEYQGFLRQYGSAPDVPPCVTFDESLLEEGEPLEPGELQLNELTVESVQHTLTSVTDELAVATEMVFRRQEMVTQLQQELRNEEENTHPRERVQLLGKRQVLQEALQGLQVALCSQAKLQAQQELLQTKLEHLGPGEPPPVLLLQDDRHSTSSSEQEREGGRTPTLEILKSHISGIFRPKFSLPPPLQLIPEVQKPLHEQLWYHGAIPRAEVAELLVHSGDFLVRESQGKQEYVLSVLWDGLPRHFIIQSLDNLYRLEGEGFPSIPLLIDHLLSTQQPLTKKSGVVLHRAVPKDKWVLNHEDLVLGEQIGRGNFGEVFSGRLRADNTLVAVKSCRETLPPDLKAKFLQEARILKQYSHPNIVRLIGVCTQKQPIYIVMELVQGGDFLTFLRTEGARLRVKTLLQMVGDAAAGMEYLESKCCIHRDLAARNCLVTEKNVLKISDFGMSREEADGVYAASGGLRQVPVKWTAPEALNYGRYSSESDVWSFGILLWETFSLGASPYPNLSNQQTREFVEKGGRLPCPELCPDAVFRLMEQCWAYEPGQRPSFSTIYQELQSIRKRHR

[12] = tested on: FGFR3 (human), P22607 [G697C]
[13] = tested on: FLT3 (human), P36888 [K663Q]
[14] = molecular target: IGF1R (human) (UniProt P08069)
[15] = molecular target: JAK1 JH1 catalytic (human) (UniProt P23458)
[16] = tested on: KIT (human), P10721 [D816H]
[17] = molecular target: LATS2 (human) (UniProt Q9NRM7)
Sequence of LATS2 (human) (Q9NRM7 whole entry, looked up): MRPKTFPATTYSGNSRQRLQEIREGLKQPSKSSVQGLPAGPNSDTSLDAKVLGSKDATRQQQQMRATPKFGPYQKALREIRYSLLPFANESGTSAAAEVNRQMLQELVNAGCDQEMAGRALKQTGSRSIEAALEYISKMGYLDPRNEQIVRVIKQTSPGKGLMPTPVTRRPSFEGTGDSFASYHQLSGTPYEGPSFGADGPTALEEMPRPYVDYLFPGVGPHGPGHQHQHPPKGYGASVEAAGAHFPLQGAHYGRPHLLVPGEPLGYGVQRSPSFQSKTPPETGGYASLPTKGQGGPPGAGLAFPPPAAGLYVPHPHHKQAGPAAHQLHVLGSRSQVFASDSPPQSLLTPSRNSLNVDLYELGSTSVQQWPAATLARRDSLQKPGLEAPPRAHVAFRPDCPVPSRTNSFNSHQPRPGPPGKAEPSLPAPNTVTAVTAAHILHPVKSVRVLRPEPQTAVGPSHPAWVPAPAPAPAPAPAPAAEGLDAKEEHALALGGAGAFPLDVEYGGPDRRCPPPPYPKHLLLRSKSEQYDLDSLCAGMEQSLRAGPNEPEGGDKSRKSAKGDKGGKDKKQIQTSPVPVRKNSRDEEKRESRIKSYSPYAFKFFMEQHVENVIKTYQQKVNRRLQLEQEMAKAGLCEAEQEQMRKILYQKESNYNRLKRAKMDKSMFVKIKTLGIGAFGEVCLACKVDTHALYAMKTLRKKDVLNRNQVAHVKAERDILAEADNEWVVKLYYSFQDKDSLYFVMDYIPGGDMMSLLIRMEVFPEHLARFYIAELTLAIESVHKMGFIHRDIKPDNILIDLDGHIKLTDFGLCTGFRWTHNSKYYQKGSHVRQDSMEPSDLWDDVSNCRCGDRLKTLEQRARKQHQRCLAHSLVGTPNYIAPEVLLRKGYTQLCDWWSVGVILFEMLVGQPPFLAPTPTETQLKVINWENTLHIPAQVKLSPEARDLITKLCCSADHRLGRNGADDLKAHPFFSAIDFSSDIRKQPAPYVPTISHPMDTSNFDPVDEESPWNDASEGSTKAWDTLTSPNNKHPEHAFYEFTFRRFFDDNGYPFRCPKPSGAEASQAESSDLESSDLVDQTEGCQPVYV

[18] = molecular target: MAP3K4 (human) (UniProt Q9Y6R4)
[19] = molecular target: MAP3K6 (human) (UniProt O95382)
[20] = molecular target: MAP3K7 (human) (UniProt O43318)
[21] = molecular target: MARK1 (human) (UniProt Q9P0L2)
[22] = molecular target: MYLK2 (human) (UniProt Q9H1R3)
Sequence of MYLK2 (human) (Q9H1R3 whole entry, looked up): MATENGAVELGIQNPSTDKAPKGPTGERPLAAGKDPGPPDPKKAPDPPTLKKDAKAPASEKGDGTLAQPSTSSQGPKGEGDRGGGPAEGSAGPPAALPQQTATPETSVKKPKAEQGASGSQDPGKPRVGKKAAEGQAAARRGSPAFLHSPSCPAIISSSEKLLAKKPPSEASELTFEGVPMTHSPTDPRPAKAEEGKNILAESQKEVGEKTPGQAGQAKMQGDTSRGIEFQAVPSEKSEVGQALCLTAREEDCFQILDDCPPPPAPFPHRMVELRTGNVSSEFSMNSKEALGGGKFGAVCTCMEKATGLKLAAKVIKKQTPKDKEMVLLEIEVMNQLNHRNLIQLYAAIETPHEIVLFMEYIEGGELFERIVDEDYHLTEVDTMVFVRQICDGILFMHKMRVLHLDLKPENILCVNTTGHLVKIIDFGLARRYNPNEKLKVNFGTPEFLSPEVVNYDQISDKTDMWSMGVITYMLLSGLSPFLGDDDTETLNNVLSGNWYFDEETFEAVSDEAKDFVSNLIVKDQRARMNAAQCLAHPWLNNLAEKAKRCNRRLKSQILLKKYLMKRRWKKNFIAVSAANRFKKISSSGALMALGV

[23] = molecular target: NLK (human) (UniProt Q9UBE8)
[24] = molecular target: NTRK2 (human) (UniProt Q16620)
[25] = molecular target: PAK6 (human) (UniProt Q9NQU5)
[26] = molecular target: PKN2 (human) (UniProt Q16513)
[27] = molecular target: PKN3 (M.tuberculosis) (UniProt Q6P5Z2)
[28] = molecular target: PRKCD (human) (UniProt Q05655)
[29] = molecular target: PRKD2 (human) (UniProt Q9BZL6)
[30] = molecular target: PTK6 (human) (UniProt Q13882)
[31] = tested on: RET (human), P07949 [V804M]
[32] = molecular target: RIOK1 (human) (UniProt Q9BRS2)
Sequence of RIOK1 (human) (Q9BRS2 whole entry, looked up): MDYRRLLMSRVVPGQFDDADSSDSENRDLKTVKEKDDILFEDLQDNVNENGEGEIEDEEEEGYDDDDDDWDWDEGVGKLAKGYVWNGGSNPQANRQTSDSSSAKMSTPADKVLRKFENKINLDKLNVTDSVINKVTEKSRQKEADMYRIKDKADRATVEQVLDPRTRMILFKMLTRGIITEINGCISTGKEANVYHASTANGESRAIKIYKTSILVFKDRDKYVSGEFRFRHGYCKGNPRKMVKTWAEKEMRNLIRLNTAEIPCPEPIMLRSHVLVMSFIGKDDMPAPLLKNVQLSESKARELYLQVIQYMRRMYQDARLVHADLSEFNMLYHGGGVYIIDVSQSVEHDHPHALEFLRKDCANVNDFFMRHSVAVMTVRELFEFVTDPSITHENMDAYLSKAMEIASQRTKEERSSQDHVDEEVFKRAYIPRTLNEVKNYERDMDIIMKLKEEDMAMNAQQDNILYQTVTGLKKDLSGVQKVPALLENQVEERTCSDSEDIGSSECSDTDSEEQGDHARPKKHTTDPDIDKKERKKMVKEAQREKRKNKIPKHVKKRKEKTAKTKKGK

[33] = molecular target: RIOK2 (human) (UniProt Q9BVS4)
[34] = molecular target: RPS6KA2 KD1 (human) (UniProt Q15349)
[35] = molecular target: RPS6KA5 KD2 (human) (UniProt O75582)
Sequence of RPS6KA5 KD2 (human) (O75582 whole entry, looked up): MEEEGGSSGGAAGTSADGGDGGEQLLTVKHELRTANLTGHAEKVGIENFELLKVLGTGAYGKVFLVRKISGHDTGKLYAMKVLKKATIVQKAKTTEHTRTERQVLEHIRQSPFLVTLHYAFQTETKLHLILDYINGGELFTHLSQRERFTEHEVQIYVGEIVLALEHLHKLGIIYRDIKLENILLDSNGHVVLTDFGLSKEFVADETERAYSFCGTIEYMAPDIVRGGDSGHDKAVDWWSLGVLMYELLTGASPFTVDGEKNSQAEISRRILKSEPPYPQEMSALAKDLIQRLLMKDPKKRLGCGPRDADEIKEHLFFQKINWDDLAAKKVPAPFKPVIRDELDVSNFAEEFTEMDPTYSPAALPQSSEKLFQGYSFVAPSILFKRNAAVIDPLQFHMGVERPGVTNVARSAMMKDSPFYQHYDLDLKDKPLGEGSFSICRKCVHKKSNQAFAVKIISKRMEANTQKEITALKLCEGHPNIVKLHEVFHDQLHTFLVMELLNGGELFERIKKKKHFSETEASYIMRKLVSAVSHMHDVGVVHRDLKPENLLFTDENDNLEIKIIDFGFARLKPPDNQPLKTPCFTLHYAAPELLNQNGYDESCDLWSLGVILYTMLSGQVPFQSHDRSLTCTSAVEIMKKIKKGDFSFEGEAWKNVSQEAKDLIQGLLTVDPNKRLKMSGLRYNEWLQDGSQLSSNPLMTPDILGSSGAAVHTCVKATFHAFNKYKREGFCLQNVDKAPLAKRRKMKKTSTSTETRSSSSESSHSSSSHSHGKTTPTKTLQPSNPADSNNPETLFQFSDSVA

[36] = molecular target: SBK1 (human) (UniProt Q52WX2)
Sequence of SBK1 (human) (Q52WX2 whole entry, looked up): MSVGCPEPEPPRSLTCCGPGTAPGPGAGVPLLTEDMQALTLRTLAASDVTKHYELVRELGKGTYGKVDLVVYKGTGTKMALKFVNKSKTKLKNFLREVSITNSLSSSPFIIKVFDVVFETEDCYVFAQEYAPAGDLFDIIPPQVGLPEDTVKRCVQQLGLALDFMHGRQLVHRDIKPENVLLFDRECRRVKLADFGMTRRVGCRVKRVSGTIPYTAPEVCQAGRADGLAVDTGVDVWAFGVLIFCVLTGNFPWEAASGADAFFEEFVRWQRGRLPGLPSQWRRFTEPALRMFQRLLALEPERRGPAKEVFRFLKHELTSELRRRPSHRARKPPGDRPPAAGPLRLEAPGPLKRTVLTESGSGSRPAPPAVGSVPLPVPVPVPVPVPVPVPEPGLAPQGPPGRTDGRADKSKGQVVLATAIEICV

[37] = molecular target: SIK1 (human) (UniProt P57059)
[38] = molecular target: SLK (human) (UniProt Q9H2G2)
[39] = molecular target: STK16 (human) (UniProt O75716)
[40] = molecular target: STK39 (human) (UniProt Q9UEW8)
[41] = molecular target: TEC (human) (UniProt P42680)
[42] = molecular target: TXK (human) (UniProt P42681)

Sequence of BMX (human) (P51813 whole entry, looked up): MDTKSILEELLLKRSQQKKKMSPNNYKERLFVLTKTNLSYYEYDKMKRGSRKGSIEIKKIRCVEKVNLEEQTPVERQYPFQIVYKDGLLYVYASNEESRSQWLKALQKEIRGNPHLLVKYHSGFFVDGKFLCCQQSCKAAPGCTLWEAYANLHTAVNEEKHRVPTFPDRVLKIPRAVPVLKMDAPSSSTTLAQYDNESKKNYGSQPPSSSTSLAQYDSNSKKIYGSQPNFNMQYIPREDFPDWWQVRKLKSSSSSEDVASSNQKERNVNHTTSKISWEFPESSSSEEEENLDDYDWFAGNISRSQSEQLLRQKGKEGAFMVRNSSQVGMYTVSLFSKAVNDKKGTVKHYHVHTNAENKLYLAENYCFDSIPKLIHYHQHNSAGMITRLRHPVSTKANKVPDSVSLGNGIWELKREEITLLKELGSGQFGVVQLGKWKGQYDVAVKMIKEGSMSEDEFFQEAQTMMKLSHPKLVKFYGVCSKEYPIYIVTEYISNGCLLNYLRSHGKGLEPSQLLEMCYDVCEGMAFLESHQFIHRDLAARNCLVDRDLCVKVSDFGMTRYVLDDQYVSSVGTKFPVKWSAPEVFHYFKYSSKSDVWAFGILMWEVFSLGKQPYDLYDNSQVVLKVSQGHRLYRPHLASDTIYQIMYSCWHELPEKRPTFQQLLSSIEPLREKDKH

Cc1cc([C@@H](C)Nc2ccccc2C(=O)O)c2nc(N3CCOCC3)cc(=O)n2c1
kinase still bound, per cent of control [1]: 100% | kinase still bound, per cent of control [2]: 100% | kinase still bound, per cent of control [3]: 82% | kinase still bound, per cent of control [4]: 80% | kinase still bound, per cent of control [5]: 91% | kinase still bound, per cent of control [6]: 100% | kinase still bound, per cent of control [7]: 100% | kinase still bound, per cent of control [8]: 100% | kinase still bound, per cent of control [9]: 78% | kinase still bound, per cent of control [10]: 100% | kinase still bound, per cent of control [11]: 100% | kinase still bound, per cent of control [12]: 100% | kinase still bound, per cent of control [13]: 15% | kinase still bound, per cent of control [14]: 100% | kinase still bound, per cent of control [15]: 70% | kinase still bound, per cent of control [16]: 93% | kinase still bound, per cent of control [17]: 97% | kinase still bound, per cent of control [18]: 100% | kinase still bound, per cent of control [19]: 94% | kinase still bound, per cent of control [20]: 100% | kinase still bound, per cent of control [21]: 90% | kinase still bound, per cent of control [22]: 94% | kinase still bound, per cent of control [23]: 100% | kinase still bound, per cent of control [24]: 81% | kinase still bound, per cent of control [25]: 96% | kinase still bound, per cent of control [26]: 74% | kinase still bound, per cent of control [27]: 100% | kinase still bound, per cent of control [28]: 100% | kinase still bound, per cent of control [29]: 97% | kinase still bound, per cent of control [30]: 15% | kinase still bound, per cent of control [31]: 99% | kinase still bound, per cent of control [32]: 75% | kinase still bound, per cent of control [33]: 35% | kinase still bound, per cent of control [34]: 100% | kinase still bound, per cent of control [35]: 100% | kinase still bound, per cent of control [36]: 100% | kinase still bound, per cent of control [37]: 100% | kinase still bound, per cent of control [38]: 85% | kinase still bound, per cent of control [39]: 99% | kinase still bound, per cent of control [40]: 58% | kinase still bound, per cent of control [41]: 91% | kinase still bound, per cent of control [42]: 100%

Reference: the kinase profiling compilation of Christmann-Franck et al. (2016)
